From publication PMC9254122, “Structural control of self-assembled peptide nanostructures to develop peptide vesicles for photodynamic therapy of cancer” (Materials Today Bio, 2022)

How the values were obtained:
SCC7 cells [1] = assay: Photodynamic killing of cancer cells (PDT effect), MTT assay; assay type: cell-based; details: 24 h treatment, IR laser 671 nm at 1.59 J/cm^2, peptidesome fabricated in DW
Experimental: Having controlled the nano- and biostructural properties of the peptidesomes in terms of intracellular delivery efficiency and cytotoxicity, we then evaluated their tumoricidal photodynamic effects in tissue culture. Squamous cell carcinoma 7 (SCC7) cells were treated with free Pa or the peptidesome←Pa for 24 h, followed by infrared (IR) laser irradiation (671 nm) at 1.59 J/cm^2. Cytotoxicity as a measure of the photodynamic killing of cancer cells was determined using the MTT assay. […] To probe the reason behind this negative result, the amount of single oxygen (SO) generated was quantified after the incubation of both groups in cell culture medium (with serum). The amount of SO was far higher for free Pa than for peptidesome←Pa, which accounts for the results of the PDT assay (Fig. 4b). It has been shown that the aggregation of porphyrin derivatives reduced SO generation and negatively affected PDT efficacy. […] The aggregation would have been more severe in cell culture medium containing serum. Taken together, the nonspecific aggregation of the peptidesome←Pa is likely responsible for the reduced SO generation and the lack of PDT effect. The morphology of peptidesome before and after NIR irradiation was also monitored by AFM (Fig. S12). […]

[2] = Quantification of singlet oxygen with Singlet Oxygen Sensor Green (SOSG); details: RPMI 1640 medium with 10% foetal bovine serum, IR laser irradiation
Experimental: Fig. 4 Nonspecific aggregation of peptidesomes under physiological conditions. (a) PDT effect in SCC7 cells. (b) Quantification of singlet oxygen with Singlet Oxygen Sensor Green (SOSG). The samples were dissolved in RPMI 1640 medium containing 10% foetal bovine serum, and IR laser irradiation was performed for the indicated times. (c) AFM image of the peptidesome←Pa in RPMI 1640 medium (without the serum). R6:RGD2 = 1:9.

SCC7 cells [3] = assay: In vitro cellular uptake, CLSM and flow cytometry; assay type: cell-based; details: 4 h treatment, flow cytometry of Pa fluorescence
Experimental: Cellular uptake of materials in SCC7 cells was analyzed based on the intrinsic fluorescence of Pa via CLSM (LSM700, Carl Zeiss, Germany) and flow cytometry (FACS Canto II, BD Biosciences, Bedford, MA, USA). SCC7 cells were seeded in 24-well plates at a density of 5 × 10^4 and incubated overnight. Then, 200 μL of the sample in an appropriate solution was added to 800 μL of complete medium for each well. The cells were treated with the samples for 4 h followed by the removal of the sample solution and the washing step. For cell imaging, nuclei were also stained with Hoechst 33,342.

SCC7 tumor-bearing mice = assay: In vivo antitumor (photodynamic) efficacy; parameters: species or system mouse; details: end of therapy (14 days)
Experimental: The SCC7 tumor-bearing mouse models were prepared similarly to the in vivo imaging experiment, and each sample was prepared in the same way as in the in vivo IVIS imaging experiments. The samples were intravenously injected into the mice when the tumor volume reached approximately 50 mm^3. Three hours postinjection of the samples, NIR laser (671 nm) irradiation was administered to the tumor site with a power of 0.53 W/cm^2 for 15 min, and the same sample injection and NIR irradiation procedures were repeated at the next day. The tumor volume and body weight were recorded every two days. At the end of the therapy, major organs and tumors were dissected for histological analysis. They were fixed, sliced, stained with haematoxylin and eosin (H&E), and observed with a microscope (AxioImager A1, Zeiss, Germany).

[4] = stated without reference; cited from earlier work
Description: As stated in Lipinski's rule of five, most small molecule drugs are lipophilic overall. Pheophorbide a (Pa), a small molecule drug used in this study, is also hydrophobic with a low water solubility of approximately 0.014 g/L. Pa is a porphyrin derivative of plant chlorophyll and has been used as a photosensitizer for photodynamic therapy (PDT). For noncovalent drug loading in R6 peptidesome, R6 and Pa were mixed in DW, and the solution was sonicated vigorously. After this drug loading process, the R6 peptidesomes underwent a morphological transformation into elongated supe ...

cells = assay: Cytotoxicity of peptidesomes; assay type: cell-based; details: single-component peptidesomes (Fig. 3a)

## C=Cc1c(C)c2cc3nc(c4c5[nH]c(cc6nc(cc1[nH]2)C(C)=C6CC)c(C)c5C(=O)[C@@H]4C(=O)OC)[C@@H](CCC(=O)O)[C@@H]3C [Pa, Pheophorbide a]
SCC7 cells [1]
  PDT effect (cytotoxicity, MTT): strong dose-dependent PDT effect
[2]
  amount of singlet oxygen (SO) generated, free Pa versus peptidesome←Pa: far higher
SCC7 cells [3]
  cell internalization efficiency relative to peptidesome←Pa: 5 fold
SCC7 tumor-bearing mice
  excised tumor weight, times larger than peptidesome←Pa (G&G)-treated group: approximately 3 times
SCC7 tumor-bearing mice; n = 4
  weight of the excised tumor: 1222 mg
[4]
  water solubility: approximately 0.014 g/L

## CCCCCCCCCCCC(=O)N[C@H]1CCCCNC(=O)[C@H](Cc2c[nH]c3ccccc23)NC(=O)CCC(=O)NCCOCCOCCNC(=O)[C@H](CCCNC(=N)N)NC(=O)[C@H](CCCNC(=N)N)NC(=O)[C@H](CCCNC(=N)N)NC(=O)[C@H](CCCNC(=N)N)NC(=O)[C@H](CCCNC(=N)N)NC(=O)[C@H](CCCNC(=N)N)NC(=O)CCC(=O)NCCOCCOCCNC(=O)[C@H](Cc2c[nH]c3ccccc23)NC1=O [R6]
cells
  Cytotoxicity of peptidesomes: highly toxic
